The values that follow come from ChEMBL document CHEMBL1156785, “Discovery of 4-[(2S)-2-{[4-(4-chlorophenoxy)phenoxy]methyl}-1-pyrrolidinyl]butanoic acid (DG-051) as a novel leukotriene A4 hydrolase inhibitor of leukotriene B4 biosynthesis” (J Med Chem, 2010).

Data set [1] addresses T1, Leukotriene A-4 hydrolase (Homo sapiens, UniProt P09960).
T1 sequence (P09960 whole entry): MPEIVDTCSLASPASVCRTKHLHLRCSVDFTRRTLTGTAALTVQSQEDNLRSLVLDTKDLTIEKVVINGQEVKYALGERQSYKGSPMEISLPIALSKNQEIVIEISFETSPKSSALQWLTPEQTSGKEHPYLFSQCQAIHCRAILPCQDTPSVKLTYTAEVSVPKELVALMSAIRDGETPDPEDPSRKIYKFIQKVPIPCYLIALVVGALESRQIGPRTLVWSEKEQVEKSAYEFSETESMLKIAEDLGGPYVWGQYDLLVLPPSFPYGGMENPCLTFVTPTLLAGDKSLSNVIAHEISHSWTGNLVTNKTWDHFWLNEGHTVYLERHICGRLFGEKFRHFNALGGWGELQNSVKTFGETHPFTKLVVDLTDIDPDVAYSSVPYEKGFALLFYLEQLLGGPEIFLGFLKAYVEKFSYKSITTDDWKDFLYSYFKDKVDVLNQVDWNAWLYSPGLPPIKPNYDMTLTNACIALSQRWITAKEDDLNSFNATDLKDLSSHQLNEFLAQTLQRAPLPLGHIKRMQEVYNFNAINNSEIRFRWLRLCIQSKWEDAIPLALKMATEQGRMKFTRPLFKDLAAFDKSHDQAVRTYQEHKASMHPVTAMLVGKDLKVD
Description: Inhibition of human recombinant LTA4H hydrolysis assessed as inhibition of LTB4 formation by LC-MS/MS

Data set [2] addresses Xaa-Pro aminopeptidase 1 (Homo sapiens) (UniProt Q9NQW7). Description: Inhibition of APP1 at 10 uM.
A short description of data set [3]: AUC (0 to infinity) in Sprague-Dawley rat at 10 mg/kg, po. It is filed as ADME, organism-based. Details: time infinity, dose 10 mg/kg, route oral. To be noted: plasma.
The nature of data set [4]: Clearance in monkey at 10 mg/kg, iv. The class given is ADME, organism-based, Macaca mulatta. The arrangement: dose 10 mg/kg, route intravenous. Conditions: rhesus monkey, in vivo.
Data set [5] in a line: Oral bioavailability in Sprague-Dawley rat at 10 mg/kg. Conditions: in vivo. It is filed as ADME, organism-based.
A short description of data set [6]: Volume of distribution in Sprague-Dawley rat at 10 mg/kg, iv. Details: dose 10 mg/kg, route intravenous. Conditions: in vivo. The class given is ADME, organism-based.
The target of data set [7] is Endoplasmic reticulum aminopeptidase 2 (Homo sapiens) (UniProt Q6P179). Description: Inhibition of LRAP at 10 uM.
The next data set concerns the target CYP2C9 (Homo sapiens, UniProt P11712). Description: Inhibition of human CYP2C9 at 10 uM. It is filed as ADME.
The nature of data set [8]: AUC (0 to infinity) in dog at 10 mg/kg, po. It is filed as ADME, organism-based, Canis lupus familiaris. Details: time infinity, dose 10 mg/kg, route oral. Conditions: plasma.
A short description of data set [9]: Clearance in Sprague-Dawley rat at 10 mg/kg, iv. The class given is ADME, organism-based. The arrangement: dose 10 mg/kg, route intravenous. Conditions: in vivo.
The nature of data set [10]: Half life in monkey at 10 mg/kg, po. It is filed as ADME, organism-based, Macaca mulatta. The arrangement: dose 10 mg/kg, route oral. To be noted: rhesus monkey, in vivo.
Another data set has as its target Cytochrome P450 2D6 (Homo sapiens, UniProt P10635). Kind of data set: Inhibition of CYP2D6. It is filed as ADME.
The nature of data set [11]: Volume of distribution in monkey at 10 mg/kg, iv. The class given is ADME, organism-based, Macaca mulatta. To be noted: rhesus monkey, in vivo. The arrangement: dose 10 mg/kg, route intravenous.
The next data set concerns the target T2, CYP1A2 (Homo sapiens, UniProt P05177).
T2 sequence (P05177 whole entry): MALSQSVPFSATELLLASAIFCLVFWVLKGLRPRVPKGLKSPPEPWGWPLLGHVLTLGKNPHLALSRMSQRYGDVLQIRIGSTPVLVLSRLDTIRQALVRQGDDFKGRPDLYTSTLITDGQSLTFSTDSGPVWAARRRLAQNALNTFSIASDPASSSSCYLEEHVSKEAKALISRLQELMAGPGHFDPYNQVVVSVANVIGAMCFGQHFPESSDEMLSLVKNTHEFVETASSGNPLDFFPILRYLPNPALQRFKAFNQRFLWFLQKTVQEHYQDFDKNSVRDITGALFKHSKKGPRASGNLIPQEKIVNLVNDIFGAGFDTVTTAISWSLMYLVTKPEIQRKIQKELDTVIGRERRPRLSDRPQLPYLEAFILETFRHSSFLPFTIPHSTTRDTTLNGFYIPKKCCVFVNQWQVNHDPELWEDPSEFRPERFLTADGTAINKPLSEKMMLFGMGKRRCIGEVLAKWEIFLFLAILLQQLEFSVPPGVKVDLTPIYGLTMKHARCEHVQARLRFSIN
Description: Inhibition of human CYP1A2 at 10 uM. It is filed as ADME.

Data set [12] in a line: Clearance in dog at 10 mg/kg, iv. The class given is ADME, organism-based, Canis lupus familiaris. The arrangement: dose 10 mg/kg, route intravenous. Conditions: in vivo.
The subject of the next data set is Rhesus monkey. Kind of data set: Oral bioavailability in monkey at 10 mg/kg. To be noted: in vivo. The class given is ADME, organism-based, Macaca mulatta.
Data set [13] concerns the target Glutamyl aminopeptidase (Homo sapiens) (UniProt Q07075). Description: Inhibition of APA at 10 uM.
Data set [14] is described as follows: Half life in Sprague-Dawley rat at 10 mg/kg, po. Details: dose 10 mg/kg, route oral. It is filed as ADME, organism-based. Conditions: in vivo.
The target in a further data set is CYP2C19 (Homo sapiens, UniProt P33261). Description: Inhibition of human CYP2C19 at 10 uM. It is filed as ADME.
Data set [15] is described as follows: Cmax in Sprague-Dawley rat at 10 mg/kg, po. It is filed as ADME, organism-based. The arrangement: dose 10 mg/kg, route oral. To be noted: in vivo.
Data set [16] deals with Endoplasmic reticulum aminopeptidase 1 (Homo sapiens) (UniProt Q9NZ08). Kind of data set: Inhibition of PILS at 10 uM.
Data set [17] is described as follows: Cmax in dog at 10 mg/kg, po. The class given is ADME, organism-based, Canis lupus familiaris. To be noted: in vivo. Details: dose 10 mg/kg, route oral.
Data set [18] in a line: Half life in dog at 10 mg/kg, po. The arrangement: dose 10 mg/kg, route oral. Conditions: in vivo. The class given is ADME, organism-based, Canis lupus familiaris.
Data set [19] can be described thus: Cmax in monkey at 10 mg/kg, po. Details: dose 10 mg/kg, route oral. Conditions: rhesus monkey, in vivo. The class given is ADME, organism-based, Macaca mulatta.
For data set [20], the target named is Aminopeptidase N (Homo sapiens) (UniProt P15144). Description: Inhibition of APN at 10 uM.
Data set [21] concerns the target Voltage-gated inwardly rectifying potassium channel KCNH2 (Homo sapiens, UniProt Q12809). Kind of data set: Inhibition of human ERG channel.
For another data set, the target named is CYP3A4 (Homo sapiens, UniProt P08684). Kind of data set: Inhibition of human CYP3A4 at 10 uM. The class given is ADME.
Data set [22] in a line: AUC (0 to infinity) in monkey at 10 mg/kg, po. Conditions: rhesus monkey, plasma. Details: time infinity, dose 10 mg/kg, route oral. The class given is ADME, organism-based, Macaca mulatta.
The nature of data set [23]: Volume of distribution in dog at 10 mg/kg, iv. The class given is ADME, organism-based, Canis lupus familiaris. The arrangement: dose 10 mg/kg, route intravenous. Conditions: in vivo.
Data set [24] can be described thus: Aqueous solubility at pH 6.18. It is filed as physicochemical. Conditions: buffer.
A short description of data set [25]: Metabolic stability in rat liver microsomes assessed as compound remaining after 30 mins. Conditions: read-out: Stability. The class given is ADME, Microsome. For orientation: Liver microsomes are vesicles of endoplasmic reticulum, rich in cytochrome P450 enzymes.
Data set [26] can be described thus: AUC (0 to infinity) in mouse at 10 mg/kg, po. It is filed as ADME, organism-based. The arrangement: time infinity, dose 10 mg/kg, route oral. To be noted: plasma.
Data set [27] is described as follows: Oral bioavailability in mouse at 10 mg/kg. The class given is ADME, organism-based. To be noted: in vivo.
Data set [28] can be described thus: Clearance in mouse at 10 mg/kg, iv. The class given is ADME, organism-based. The arrangement: dose 10 mg/kg, route intravenous. To be noted: in vivo.
Data set [29] can be described thus: Half life in mouse at 10 mg/kg, po. It is filed as ADME, organism-based. The arrangement: dose 10 mg/kg, route oral. Conditions: in vivo.
Data set [30] is described as follows: Volume of distribution in mouse at 10 mg/kg, iv. It is filed as ADME, organism-based. Details: dose 10 mg/kg, route intravenous. Conditions: in vivo.
The target of data set [31] is T1, Leukotriene A-4 hydrolase. This is another data set of the same source.
Description: Inhibition of human LTA4H hydrolysis assessed as inhibition of Ca2+ ionophore-stimulated LTB4 formation in human whole blood by ELISA
A short description of data set [32]: Cmax in mouse at 10 mg/kg, po. It is filed as ADME, organism-based. Details: dose 10 mg/kg, route oral. To be noted: in vivo.
Data set [33] can be described thus: Cmax in Sprague-Dawley rat at 10 mg/kg, iv. To be noted: in vivo. The arrangement: dose 10 mg/kg, route intravenous. It is filed as ADME, organism-based.
In the next data set the test system is Rattus norvegicus. Kind of data set: AUC (0 to infinity) in Sprague-Dawley rat at 10 mg/kg, iv. It is filed as ADME, organism-based, Plasma. Details: time infinity, dose 10 mg/kg, route intravenous. To be noted: in vivo.

Sequence of CYP2C9 (P11712 whole entry): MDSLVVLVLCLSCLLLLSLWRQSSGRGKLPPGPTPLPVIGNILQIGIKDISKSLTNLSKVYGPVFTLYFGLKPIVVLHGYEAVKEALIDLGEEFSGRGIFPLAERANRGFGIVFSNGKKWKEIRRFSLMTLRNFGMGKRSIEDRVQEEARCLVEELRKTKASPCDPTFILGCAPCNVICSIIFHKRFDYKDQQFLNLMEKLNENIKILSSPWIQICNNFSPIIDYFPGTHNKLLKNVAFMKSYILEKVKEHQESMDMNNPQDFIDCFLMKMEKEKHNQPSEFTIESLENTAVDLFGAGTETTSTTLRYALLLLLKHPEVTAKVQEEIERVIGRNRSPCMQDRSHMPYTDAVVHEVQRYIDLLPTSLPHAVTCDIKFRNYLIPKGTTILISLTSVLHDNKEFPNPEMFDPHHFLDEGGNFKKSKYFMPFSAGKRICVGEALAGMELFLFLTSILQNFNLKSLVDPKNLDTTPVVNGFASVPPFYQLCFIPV
Sequence of Aminopeptidase N (Homo sapiens) (P15144 whole entry): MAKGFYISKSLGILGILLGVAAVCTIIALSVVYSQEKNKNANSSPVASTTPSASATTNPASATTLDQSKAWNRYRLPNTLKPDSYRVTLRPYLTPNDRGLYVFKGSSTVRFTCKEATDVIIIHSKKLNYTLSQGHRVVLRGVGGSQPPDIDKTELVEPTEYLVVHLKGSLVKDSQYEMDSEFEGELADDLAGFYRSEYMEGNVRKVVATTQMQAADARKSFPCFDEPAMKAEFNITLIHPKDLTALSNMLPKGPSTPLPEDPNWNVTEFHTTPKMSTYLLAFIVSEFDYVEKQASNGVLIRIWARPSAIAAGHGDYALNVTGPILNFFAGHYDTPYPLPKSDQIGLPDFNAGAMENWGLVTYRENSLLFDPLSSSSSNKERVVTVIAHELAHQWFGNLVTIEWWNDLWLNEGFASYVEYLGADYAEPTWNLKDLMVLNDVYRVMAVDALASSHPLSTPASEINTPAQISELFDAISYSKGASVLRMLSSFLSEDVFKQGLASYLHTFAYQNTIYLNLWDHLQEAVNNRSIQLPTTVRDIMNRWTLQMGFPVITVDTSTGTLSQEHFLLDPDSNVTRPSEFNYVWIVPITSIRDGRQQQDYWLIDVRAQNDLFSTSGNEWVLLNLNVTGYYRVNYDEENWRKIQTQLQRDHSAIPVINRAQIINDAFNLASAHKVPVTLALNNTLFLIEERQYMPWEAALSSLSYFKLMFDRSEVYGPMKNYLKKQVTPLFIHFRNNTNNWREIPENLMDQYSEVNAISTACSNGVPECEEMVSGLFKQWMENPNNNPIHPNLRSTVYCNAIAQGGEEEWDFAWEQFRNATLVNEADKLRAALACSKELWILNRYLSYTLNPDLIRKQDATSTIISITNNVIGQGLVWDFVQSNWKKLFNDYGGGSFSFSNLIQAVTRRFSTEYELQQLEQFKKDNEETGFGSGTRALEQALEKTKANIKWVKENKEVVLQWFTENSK
Sequence of Xaa-Pro aminopeptidase 1 (Homo sapiens) (Q9NQW7 whole entry, looked up): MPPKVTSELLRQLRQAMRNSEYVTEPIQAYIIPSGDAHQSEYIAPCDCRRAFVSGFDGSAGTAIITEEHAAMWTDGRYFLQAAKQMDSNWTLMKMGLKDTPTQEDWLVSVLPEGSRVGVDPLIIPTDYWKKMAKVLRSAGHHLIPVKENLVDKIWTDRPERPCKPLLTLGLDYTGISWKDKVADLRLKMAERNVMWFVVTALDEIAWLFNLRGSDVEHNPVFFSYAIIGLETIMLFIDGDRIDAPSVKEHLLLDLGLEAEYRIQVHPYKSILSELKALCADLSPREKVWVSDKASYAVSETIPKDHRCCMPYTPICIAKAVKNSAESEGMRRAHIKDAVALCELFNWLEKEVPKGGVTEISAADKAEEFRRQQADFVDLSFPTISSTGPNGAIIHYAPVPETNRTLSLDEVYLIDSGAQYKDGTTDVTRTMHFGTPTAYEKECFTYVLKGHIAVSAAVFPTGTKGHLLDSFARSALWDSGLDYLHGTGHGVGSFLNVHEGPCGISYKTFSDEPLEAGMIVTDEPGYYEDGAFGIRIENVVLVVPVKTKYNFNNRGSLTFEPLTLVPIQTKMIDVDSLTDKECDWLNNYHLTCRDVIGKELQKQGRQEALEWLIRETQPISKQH
Sequence of Voltage-gated inwardly rectifying potassium channel KCNH2 (Q12809 whole entry): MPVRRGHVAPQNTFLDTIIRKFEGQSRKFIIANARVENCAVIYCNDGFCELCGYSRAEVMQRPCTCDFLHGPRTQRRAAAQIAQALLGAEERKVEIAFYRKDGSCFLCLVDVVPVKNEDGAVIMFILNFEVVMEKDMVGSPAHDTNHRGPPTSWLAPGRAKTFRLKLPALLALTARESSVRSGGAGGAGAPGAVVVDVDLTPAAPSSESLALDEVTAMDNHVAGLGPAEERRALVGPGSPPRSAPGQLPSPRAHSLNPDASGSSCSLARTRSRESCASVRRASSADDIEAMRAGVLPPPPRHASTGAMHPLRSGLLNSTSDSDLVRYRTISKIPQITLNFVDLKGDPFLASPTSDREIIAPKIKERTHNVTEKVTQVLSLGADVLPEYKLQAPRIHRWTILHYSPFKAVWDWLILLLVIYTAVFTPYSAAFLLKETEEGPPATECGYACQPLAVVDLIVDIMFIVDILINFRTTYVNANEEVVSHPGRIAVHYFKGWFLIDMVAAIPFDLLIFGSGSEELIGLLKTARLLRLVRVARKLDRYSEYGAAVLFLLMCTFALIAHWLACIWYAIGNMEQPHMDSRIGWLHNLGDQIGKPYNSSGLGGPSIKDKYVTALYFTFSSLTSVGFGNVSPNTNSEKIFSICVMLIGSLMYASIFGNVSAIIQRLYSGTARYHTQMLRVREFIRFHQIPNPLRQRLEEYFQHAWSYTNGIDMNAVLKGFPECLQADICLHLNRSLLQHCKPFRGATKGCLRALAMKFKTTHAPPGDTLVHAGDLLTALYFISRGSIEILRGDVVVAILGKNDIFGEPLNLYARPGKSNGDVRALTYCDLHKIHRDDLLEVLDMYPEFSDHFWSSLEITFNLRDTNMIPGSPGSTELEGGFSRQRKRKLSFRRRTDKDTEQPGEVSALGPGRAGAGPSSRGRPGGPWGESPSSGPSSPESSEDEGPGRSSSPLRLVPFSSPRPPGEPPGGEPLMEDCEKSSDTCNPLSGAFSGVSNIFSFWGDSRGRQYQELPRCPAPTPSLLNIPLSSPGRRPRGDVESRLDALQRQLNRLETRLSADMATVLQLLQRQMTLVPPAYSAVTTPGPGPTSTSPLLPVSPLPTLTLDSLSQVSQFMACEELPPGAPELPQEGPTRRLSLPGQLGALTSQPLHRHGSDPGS
Sequence of CYP2C19 (P33261 whole entry): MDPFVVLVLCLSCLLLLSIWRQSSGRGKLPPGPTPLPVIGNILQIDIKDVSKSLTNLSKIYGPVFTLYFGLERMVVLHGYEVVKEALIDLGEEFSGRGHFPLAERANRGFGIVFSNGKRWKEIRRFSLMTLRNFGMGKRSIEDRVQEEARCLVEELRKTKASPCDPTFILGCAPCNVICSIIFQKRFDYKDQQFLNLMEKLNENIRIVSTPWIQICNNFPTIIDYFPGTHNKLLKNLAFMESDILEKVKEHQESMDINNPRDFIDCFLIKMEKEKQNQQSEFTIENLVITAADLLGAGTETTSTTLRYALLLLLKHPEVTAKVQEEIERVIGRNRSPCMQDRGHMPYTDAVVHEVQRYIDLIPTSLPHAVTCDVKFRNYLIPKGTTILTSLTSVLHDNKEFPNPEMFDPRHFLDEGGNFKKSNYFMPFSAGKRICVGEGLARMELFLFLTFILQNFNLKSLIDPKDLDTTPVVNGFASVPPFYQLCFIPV
Sequence of Endoplasmic reticulum aminopeptidase 2 (Homo sapiens) (Q6P179 whole entry): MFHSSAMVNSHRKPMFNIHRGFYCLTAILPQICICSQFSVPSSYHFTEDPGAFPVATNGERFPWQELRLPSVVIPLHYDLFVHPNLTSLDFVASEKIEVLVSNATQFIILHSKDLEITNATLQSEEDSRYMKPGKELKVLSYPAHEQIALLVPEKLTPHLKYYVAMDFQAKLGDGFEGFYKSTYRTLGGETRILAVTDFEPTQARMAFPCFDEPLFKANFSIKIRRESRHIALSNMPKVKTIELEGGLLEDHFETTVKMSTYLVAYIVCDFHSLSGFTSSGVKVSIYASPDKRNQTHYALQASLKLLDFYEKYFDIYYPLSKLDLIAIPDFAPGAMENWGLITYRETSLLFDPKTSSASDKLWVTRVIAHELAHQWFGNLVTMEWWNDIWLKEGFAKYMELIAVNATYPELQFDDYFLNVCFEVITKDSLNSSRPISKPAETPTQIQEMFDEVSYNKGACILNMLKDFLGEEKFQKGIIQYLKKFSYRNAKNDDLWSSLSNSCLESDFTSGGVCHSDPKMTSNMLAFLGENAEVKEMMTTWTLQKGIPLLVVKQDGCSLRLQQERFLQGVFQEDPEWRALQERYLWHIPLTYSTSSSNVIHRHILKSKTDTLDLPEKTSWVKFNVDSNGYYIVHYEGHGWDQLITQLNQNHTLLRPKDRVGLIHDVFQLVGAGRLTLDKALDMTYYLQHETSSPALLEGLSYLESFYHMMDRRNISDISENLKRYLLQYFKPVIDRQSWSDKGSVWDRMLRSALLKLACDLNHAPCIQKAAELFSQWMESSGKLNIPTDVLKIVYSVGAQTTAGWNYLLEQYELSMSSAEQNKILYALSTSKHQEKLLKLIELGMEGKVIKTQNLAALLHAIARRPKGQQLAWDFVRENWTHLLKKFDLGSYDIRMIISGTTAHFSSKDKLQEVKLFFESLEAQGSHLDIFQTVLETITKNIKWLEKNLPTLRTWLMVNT

Broadly, the IC50 is the midpoint of a concentration-inhibition curve. For `Ic1ccc(Oc2ccc(N3CCNCC3)cc2)cc1`, in data set [1], the IC50 was found to be 340 nM.
As a reminder, the inhibition is the share of the control response that was lost under treatment. A word on the AUC(0-inf): it is total exposure, with the tail of the curve extrapolated. Usually clearance stands for a measure of how efficiently the substance is removed, as volume per time. By bioavailability is commonly meant dose-corrected exposure relative to a reference, in per cent. The Vd is a proportionality between amount in the body and measured concentration, not a real space. In general, half-life refers to how long it takes for the measured level to halve. A word on the Cmax: it is the peak of the concentration-time curve. As a reminder, the solubility is the dissolved amount per volume that the medium holds. On to `O=C(O)CCCN1CCC[C@H]1COc1ccc(Oc2ccc(Cl)cc2)cc1`, for which the inhibition in [2], in data set [7], in [13], in data set [16] and in data set [20] was > 50% throughout. In addition, the area under the curve AUC(0-inf) was 13000 ng·h/mL in data set [3], 56000 ng·h/mL in data set [8] and 52400 ng·h/mL in data set [22]. The clearance in data set [4] was determined as 6 mL/min/kg; in data set [9] it was 11 mL/min/kg; in data set [12], 7.6 mL/min/kg. The same compound had a bioavailability in data set [5] of 87%. Further, the Vd worked out at 2.35 L/kg in data set [6], 2.07 L/kg in data set [11] and 1.56 L/kg in [23]. Moreover, the inhibition at 10 µM against CYP2C9, at CYP1A2, against CYP2C19 and at CYP3A4 was < 50% throughout. Moreover, the half-life in [10] was 5.54 h; in data set [14], 2.57 h; in data set [18], 4.02 h. In addition, the “inhibition (INH)” value against Cytochrome P450 2D6 was < 50%; in data set [21], > 50%. In the data set with Rhesus monkey, the F is 186%. In addition, the peak concentration (Cmax) stood at 4.8 µM in data set [15], 19.3 µM in data set [17] and 18.9 µM in [19]. The solubility in data set [24] is > 30 mg/mL. Also, the remaining at 0.5 h in [25] is 95.2%.
`Clc1ccc(Oc2ccc(OC[C@H]3CCCN3)cc2)cc1`: the AUC(0-inf) in [26] worked out at 2360 ng·h/mL. The bioavailability in data set [27] turned out to be 85%. The concentration for half-maximal inhibition (IC50) came to 30 nM in data set [1] and 533 nM in [31]. The compound further yielded a clearance in data set [28] of 61 mL/min/kg. In addition, in data set [29], the half-life was 3.59 h. This compound also had a distribution volume (Vd) in data set [30] of 6.32 L/kg. Moreover, in [32], the concentration peaked (Cmax) at 1.02 µM. For the same compound, the remaining at 0.5 h in [25] came to 86.6%.
As to `c1ccc(Cc2ccc(OCCc3ccncc3)cc2)cc1`, the 50% inhibitory concentration (IC50) in [1] is 8700 nM.
The AUC is concentration integrated over time. On to `c1ccc(Cc2ccc(OC[C@H]3CCCN3)cc2)cc1`, for which the Cmax in data set [33] was 1.46 µM. In addition, the Vd in [6] amounted to 6.12 L/kg. In data set [14], this compound gave a half-life of 0.67 h. This compound also returned an exposure (AUC) in the data set with Rattus norvegicus of 471 ng·h/mL. The remaining at 0.5 h in data set [25] is 10.5%.
